The results in this text go back to US9131698B2, “Biocidal compositions and methods of use” (Dow Global Technologies LLC, priority 2011, dated 2015).

What all share (format): cell-based
Assay [1] concerns Pseudomonas aeruginosa ATCC 10145 and Staphylococcus aureus ATCC 6538. In words: Biocidal efficacy against aerobic bacteria, 24 hours, minimum concentration for 99.9% bacterial kill. Conditions: 37° C. The procedure:
(§1) The synergy indexes reported in the following examples are calculated using the following equation: Synergy Index=Ca/CA+Cb/CB
(§2) Ca: Concentration of biocide A required to achieve a certain level of bacterial kill when used in combination with B
(§3) CA: Concentration of biocide A required to achieve a certain level of bacterial kill when used alone
(§4) Cb: Concentration of biocide B required to achieve a certain level of bacterial kill when used in combination with A
(§5) CB: Concentration of biocide B required to achieve a certain level of bacterial kill when used alone.
(§6) A synergy index (SI) of 1 indicates additivity, a synergy index of less than 1 indicates synergy, and a synergy index greater than 1 indicates antagonism.
(§7) Synergy Index is then calculated.

Assay [2] shares this test system. The assay can be described thus: Biocidal efficacy against aerobic bacteria, 2 hr, minimum concentration for complete bacterial kill. The following applies: 37° C. The procedure:
as §1, §2, §3, §4, §5, §6, §7

For assay [3], the system named is Biofilms of Desulfovibrio longus ATCC 51456. The assay can be described thus: Biofilm removal, Calgary Biofilm Device, crystal violet staining. Conditions: 2 hours treatment. The procedure:
Biofilms of Desulfovibrio longus ATCC 51456 are grown in a Calgary Biofilm Device (Innovotech, Alberta, Canada) at 35° C. and under anaerobic conditions for 72 hours with shaking (125 rpm). Modified Baar's Medium (ATCC #1249 Broth) is used as culture medium and the medium is changed after 48 hrs of incubation. […] After biocide treatment, the pegs are rinsed again with deoxygenated sterile 0.85% NaCl solution and then the total biofilm left on each peg is measured according to the following description. The biofilm is fixed with 99% methanol and, after air drying, the pegs are stained with 2% (w/v) crystal violet and washed with tap water. The pegs are then air dried and the crystal violet bound to the biofilm is extracted with 33% glacial acetic acid. The total remaining biofilm is determined by the optical density (OD) of the extracted solution at 580 nm.

Assay [4] has as its system Desulfovibrio longus ATCC 51456. In words: Biocidal efficacy against SRB, 2 hour treatment time. The procedure:
as §1, §2, §3, §4, §5, §6
(§8) Inside an anaerobic chamber (Bactron anaerobic chamber), a deoxygenated sterile salt solution (3.1183 g of NaCl, 1.3082 mg of NaHCO3, 47.70 mg of KCl, 72.00 mg of CaCl2, 54.49 mg of MgSO4, 172.28 mg of Na2SO4, 43.92 mg of Na2CO3 in 1 L water) is inoculated with Desulfovibrio longus ATCC 51456 to a final bacterial concentration of 10^6 to 10^7 CFU/mL.

Assay [5] has the same test system. The assay can be described thus: Biocidal efficacy against anaerobic bacteria, 24 hours, minimum concentration for 99.999% bacterial reduction. The following applies: 35° C. The procedure:
as §1, §2, §3, §4, §5, §6, §8

Where [6] appears, read: PHMB part of minimum concentration.
The mark [7] stands for this setting: THPS part of minimum concentration.

For “tetrakis (hydroxymethyl) phosphonium sulfate [THPS]”, the “Concentration (ppm a.i.) for 99.9% bacterial kill, PHMB” value in assay [1] (setting [6]) stood at 0.0 ppm a.i. Moreover, the “Concentration (ppm a.i.) for 99.9% bacterial kill, THPS” value in assay [1] (setting [7]) came out at 19.8 ppm a.i. In addition, the “Concentration (ppm a.i.) for aerobic bacteria kill, PHMB” value in assay [2] (PHMB part of minimum concentration for complete bacterial kill) is 0 ppm a.i. The “Concentration (ppm a.i.) for aerobic bacteria kill, THPS” value in assay [2] (THPS part of minimum concentration for complete bacterial kill) was found to be 50 ppm a.i. Besides, the “Remaining biofilm, OD580 (optical density of biofilm captured crystal violet)” value in assay [3] (50 ppm active) worked out at 0.59; in assay [3] (200 ppm active), 1.03. For the same substance, the “Concentration (ppm a.i.) for complete SRB kill, PHMB” value in assay [4] (setting [6]) stood at 0.0 ppm a.i. Also, the “Concentration (ppm a.i.) for complete SRB kill, THPS” value in assay [4] (setting [7]) was 22.2 ppm a.i. In assay [5] (PHMB part of minimum tested concentration for 99.999% bacterial reduction), the “Concentration (ppm a.i.) for anaerobic bacteria kill, PHMB” value amounted to 0.0 ppm a.i. In addition, the “Concentration (ppm a.i.) for anaerobic bacteria kill, THPS” value in assay [5] (THPS part of minimum tested concentration for 99.999% bacterial reduction) was 8.8 ppm a.i.
